Like-named read-outs stand apart in the source and are kept apart here.
Legend:
p38 MAPKα [1] = target: T1, p38 MAPKα (Homo sapiens (Human), UniProt Q16539); assay: p38 MAPKα enzyme inhibition (Method 2), Z-LYTE FRET; type: biochemical
Description: (§1) The enzyme inhibitory activities of compounds disclosed herein are determined by FRET using synthetic peptides labelled with both donor and acceptor fluorophores (Z-LYTE, Invitrogen Ltd., Paisley, UK).
The inhibitory activities of test compounds against the p38 MAPKα isoform (MAPK14: Invitrogen) are evaluated indirectly by determining the level of activation/phosphorylation of the down-stream molecule, MAPKAP-K2. The p38 MAPKα protein (80 ng/mL, 2.5 μL) is mixed with the test compound (2.5 μL of either 4 μg/mL, 0.4 μg/mL, […] or 0.004 μg/mL) for 2 hr at RT. […] The mixture is incubated for 1 hr at RT. Development reagent (protease, 5 μL) is added for 1 hr prior to detection in a fluorescence microplate reader (Varioskan® Flash, ThermoFisher Scientific). […]
(§2) In all cases, the site-specific protease cleaves non-phosphorylated peptide only and eliminates the FRET signal. Phosphorylation levels of each reaction are calculated using the ratio of coumarin emission (donor) over fluorescein emission (acceptor), for which high ratios indicate high phosphorylation and low ratios indicate low phosphorylation levels.

[2] = test system: intestinal mucosa biopsies from ulcerative colitis patients; assay: Human biopsy assay, cytokine release from biopsies of UC patients; type: cell-based; settings: 1 μg/mL, 24 hours; relative to DMSO control 100%
Description: Intestinal mucosa biopsies are obtained from the inflamed regions of the colons of IBD patients. The biopsy material is cut into small pieces (2-3 mm) and placed on steel grids in an organ culture chamber at 37° C. in a 5% CO2/95% O2 atmosphere in serum-free media. DMSO control or test compound at the desired concentration are added to the tissue and incubated for 24 hr in the organ culture chamber. The supernatant is harvested for determination of IL-6, IL-8, IL-1β and TNFα levels by R&D ELISA.

Syk = Syk (Homo sapiens (Human), UniProt P43405); assay: Syk enzyme inhibition, Z-LYTE FRET; type: biochemical
Description: as §1
The inhibitory activities of the compound of the invention against c-Src and Syk enzymes (Invitrogen) are evaluated in a similar fashion to that described hereinabove. The relevant enzyme (3000 ng/mL or 2000 ng/mL respectively, 2.5 μL) is incubated with the test compound (either 1 μg/mL, 0.1 μg/mL, 0.01 μg/mL, or 0.001 μg/mL, 2.5 μL each) for 2 hr at RT. The FRET peptides (8 μM, 2.5 μL) and appropriate ATP solutions (2.5 μL, 800 μM for c-Src, and 60 μM ATP for Syk) are then added to the enzymes/compound mixtures and the mixture incubated for 1 hr. Development reagent (protease, 5 μL) is added for 1 hr prior to detection in a fluorescence microplate reader (Varioskan® Flash, ThermoFisher Scientific).
as §2

TNBS-induced colitis = TNBS-induced colitis in mice; type: in vivo
Description: Non-fasted, 10-12 week old, male BDF1 mice are dosed by oral gavage twice daily with either vehicle (5 mL/kg), reference item (Budesonide 2.5 mg/kg) or test compound (1 or 5 mg/kg) one day before (Day −1) stimulation of the inflammatory response by treatment with 2,4,6-trinitrobenzenesulphonic acid (TNBS) (15 mg/mL in 50% ethanol/50% saline). On Day 0 of the study, TNBS (200 μL) is administered intra-colonically via a plastic catheter with BID dosing of the vehicle, reference or test compound continuing for 2 or 4 days. During the study, animals are weighed every day and stool observations are made and recorded as a score, based on stool consistency. At the time of sacrifice on Day 2 (or Day 4), the large intestine is removed and the length and weight recorded. Sections of the colon are taken for histopathology scoring to determine disease severity.

p38 MAPKα [3] = target: T1, p38 MAPKα; assay: Phosphoflow assay, cellular p38 MAPKα inhibition in Jurkat cells; type: cell-based; settings: H2O2 stimulated, read-out: IC50 Values, phospho-p38 MAPKα (converted)
Description: Jurkat T cells were cultured in starve medium (RPMI 1640+5% FBS) for 24 h prior to the experiment. Cells were harvested and resuspended at 10×10^6 cells/mL in starve medium and then plated into round-bottomed 96 well plates at 1×10^6 cells/well. Serial dilutions of test compound were added (1% final DMSO concentration) for 2 h prior to stimulation. Following pre-incubation with compound, cells were stimulated with H2O2 (0.05% final) for 5 min. The reaction was stopped by centrifugation at 2000 rpm (3 min, 4° C.), then the supernatant was removed and 100 μL of cold fix/perm solution (BD Fix/Perm kit #554714) added. Plates were incubated for 20 min at 4° C. before centrifugation and washing with supplied 1× wash medium (BD Fix/Perm kit #554714). Cells were stained for either phospho-p38α (T180/182), supplied by Cell Signalling Technology (9211s), or phospho-Lck (Y394), supplied by R&D (MAB7500). Antibodies were diluted to 5 μg/mL (R&D) or 1:200 (Cell Signalling Technology) in wash medium, before being incubated 1 h at 4° C. in the dark. Following 3 repeat washes with ice cold wash buffer, secondary antibody (anti-rabbit-FITC #F1362 or anti-mouse-FITC #F2883, both from Sigma) was added at a dilution of 1:1000 and incubated for 1 h at 4° C. in the dark. […] Cells were analysed by flow cytometry using BD Accuri C6.

CYP2C9 = CYP2C9 (Homo sapiens (Human), UniProt P11712); assay: CYP2C9 inhibition with and without preincubation; type: in vitro ADME; settings: for inhibition at 15 µM: human, read-out: 15 μM % Inh
CYP2C9, sequence (P11712 whole entry): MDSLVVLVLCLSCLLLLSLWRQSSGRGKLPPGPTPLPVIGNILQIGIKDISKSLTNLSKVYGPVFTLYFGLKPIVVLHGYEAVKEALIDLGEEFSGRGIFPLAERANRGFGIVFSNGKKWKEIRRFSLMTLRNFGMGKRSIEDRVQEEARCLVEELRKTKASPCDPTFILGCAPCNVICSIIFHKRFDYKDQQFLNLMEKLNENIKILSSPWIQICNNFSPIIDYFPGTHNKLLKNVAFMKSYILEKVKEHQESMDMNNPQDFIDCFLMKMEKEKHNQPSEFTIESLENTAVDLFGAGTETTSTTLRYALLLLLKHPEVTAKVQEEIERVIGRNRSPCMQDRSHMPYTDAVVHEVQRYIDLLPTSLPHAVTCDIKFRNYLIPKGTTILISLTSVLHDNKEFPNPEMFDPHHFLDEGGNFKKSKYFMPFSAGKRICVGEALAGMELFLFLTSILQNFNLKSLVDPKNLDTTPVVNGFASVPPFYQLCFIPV
Description: Assessment of certain in vitro ADME (absorption, distribution, metabolism, and excretion) parameters for Compound I was conducted by BioFocus (Saffron Walden, UK). The results reveal that Compound I is cleared rapidly by human hepatocytes and that it has a reduced liability for time-dependent cytochrome P450 inhibition.

[4] = 5 mg/kg orally BID, 2 days, SMEDDS vehicle

T1 sequence (Q16539 whole entry, looked up): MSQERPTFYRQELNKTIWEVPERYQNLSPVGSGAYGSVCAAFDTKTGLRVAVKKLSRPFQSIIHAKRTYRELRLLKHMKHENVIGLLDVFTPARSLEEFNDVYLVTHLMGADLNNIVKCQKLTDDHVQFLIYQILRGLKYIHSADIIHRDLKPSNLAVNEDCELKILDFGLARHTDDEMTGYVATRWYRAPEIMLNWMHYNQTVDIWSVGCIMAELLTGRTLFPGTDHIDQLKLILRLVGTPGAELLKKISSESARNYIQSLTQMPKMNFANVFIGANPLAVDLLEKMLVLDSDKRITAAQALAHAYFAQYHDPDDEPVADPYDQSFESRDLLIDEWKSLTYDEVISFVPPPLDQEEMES

With `C#Cc1cc(Nc2nccc(Oc3ccc(NC(=O)Nc4cc(C(C)(C)C)cc(NS(C)(=O)=O)c4OC)c4ccccc34)n2)cc(C(=O)NCCOCCOCCOC)c1` [Compound I, 3-((4-((4-(3-(5-(tert-Butyl)-2-methoxy-3-(methylsulfonamido)phenyl)ureido)naphthalen-1-yl)oxy)pyrimidin-2-yl)amino)-5-ethynyl-N-(2-(2-(2-methoxyethoxy)ethoxy)ethyl)benzamide] the IC50 (p38 MAPKα [1]) was 224 nM, the “IL-1β release from biopsies of UC patients” value [2] was 5 ± 8% and the “IL-6 release from biopsies of UC patients” value [2] was 17 ± 23%. For the same compound, the “IL-8 release from biopsies of UC patients” value [2] was 9 ± 15%, the IC50 (Syk) was 591 nM and the LP inflammation (TNBS-induced colitis; [4]) was 3.8 ± 0.4. For the same compound, the Ulcer grade (TNBS-induced colitis; [4]) was 3.6 ± 0.5, the “inflammatory cell infiltrate in the reticular and laminar propria zones” value (TNBS-induced colitis; dosed orally at 5 mg/kg) was “marked reduction” and the “ulcer grade and epithelial repair compared to the vehicle control” value (TNBS-induced colitis; dosed orally at 5 mg/kg) was “marked improvements”. It also gave an IC50 (p38 MAPKα [3]) of 23.8 nM, an IC50 (CYP2C9; CYP2C9, 0 min preincubation) of over 15 µM and an IC50 (CYP2C9; CYP2C9, 30 min preincubation) of over 15 µM. For the same compound, the inhibition at 15 µM (CYP2C9; CYP2C9, 0 min preincubation) was 21% and the inhibition at 15 µM (CYP2C9; CYP2C9, 30 min preincubation) was 37%.
